The text below walks through data of US9193722B2, “Tri-cyclic pyrazolopyridine kinase inhibitors” (Vertex Pharmaceuticals Incorporated, priority 2008, dated 2015).

pKi: −log10 of the molar value.

What all share (assay type): biochemical
The target of one assay is PKC theta kinase (Homo sapiens, UniProt Q04759). The assay can be described thus: PKC theta kinase inhibition, coupled-enzyme (NADH absorbance) assay, Ki. To be noted: 240 μM ATP, 18 nM PKC theta kinase, 30° C. As for the experimental part: An assay buffer solution was prepared which consisted of 100 mM HEPES (pH 7.5), 10 mM MgCl2, 25 mM NaCl, 0.1 mM EDTA and 0.01% Brij. […] To 60 μL of this enzyme buffer, in a 384 well plate, was added 2 μL of VRT stock solution in DMSO. The mixture was allowed to equilibrate for 10 mins at 30° C. […] Ki values were calculated from initial rate data by non-linear regression using the Prism software package (Prism 4.0a, Graphpad Software, San Diego, Calif.).
Chain of PKC theta kinase (Q04759 whole entry): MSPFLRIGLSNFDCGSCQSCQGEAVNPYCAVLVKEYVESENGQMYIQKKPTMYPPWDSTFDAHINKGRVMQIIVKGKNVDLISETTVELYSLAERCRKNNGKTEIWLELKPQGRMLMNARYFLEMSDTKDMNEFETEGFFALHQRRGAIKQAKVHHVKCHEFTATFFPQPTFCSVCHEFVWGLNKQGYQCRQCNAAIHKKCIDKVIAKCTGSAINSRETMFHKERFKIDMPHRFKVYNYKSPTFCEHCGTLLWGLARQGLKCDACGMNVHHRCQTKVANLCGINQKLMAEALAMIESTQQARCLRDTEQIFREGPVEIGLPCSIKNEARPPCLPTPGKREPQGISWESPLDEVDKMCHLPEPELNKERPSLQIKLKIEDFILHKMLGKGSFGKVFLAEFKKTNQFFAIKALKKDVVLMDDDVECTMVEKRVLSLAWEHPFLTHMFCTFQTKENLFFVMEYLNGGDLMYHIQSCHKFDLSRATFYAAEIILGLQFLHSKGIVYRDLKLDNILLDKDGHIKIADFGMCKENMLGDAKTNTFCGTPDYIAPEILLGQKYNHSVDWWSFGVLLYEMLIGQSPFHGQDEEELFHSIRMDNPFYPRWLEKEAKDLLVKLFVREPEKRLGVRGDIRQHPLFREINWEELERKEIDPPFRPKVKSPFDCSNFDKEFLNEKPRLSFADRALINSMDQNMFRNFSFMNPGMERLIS

A further assay addresses PKC delta kinase (Homo sapiens, UniProt Q05655). The assay can be described thus: PKC delta kinase inhibition, coupled-enzyme (NADH absorbance) assay, Ki. To be noted: 150 μM ATP, 46 nM PKC delta kinase, 30° C.; read-out: Ki PKC delta. As for the experimental part:
(§1) An assay buffer solution was prepared which consisted of 100 mM HEPES (pH 7.5), 10 mM MgCl2, 25 mM NaCl, 0.1 mM EDTA and 0.01% Brij. […] To 16 μL of this enzyme buffer, in a 384 well plate, was added 1 μL of VRT stock solution in DMSO. The mixture was allowed to equilibrate for 10 mins at 30° C. The enzyme reaction was initiated by the addition of 16 μL stock ATP solution prepared in assay buffer to a final assay concentration of 150 μM. Initial rate data was determined from the rate of change of absorbance at 340 nm (corresponding to stoichiometric consumption of NADH) using a Molecular Devices Spectramax plate reader (Sunnyvale, Calif.) over 15 mins at 30° C. […] Ki values were calculated from initial rate data by non-linear regression using the Prism software package (Prism 4.0a, Graphpad Software, San Diego, Calif.).

The target of a further assay is PKC alpha kinase (Homo sapiens, UniProt P17252). The assay can be described thus: PKC alpha kinase inhibition, coupled-enzyme (NADH absorbance) assay, Ki. The settings on record: 130 μM ATP, 4.5 nM PKC alpha kinase, 30° C. The procedure:
as §1, with “EDTA, 100 μM CaCl2” for “EDTA”, “130” for “150”

Chain of PKC delta kinase (Q05655 whole entry): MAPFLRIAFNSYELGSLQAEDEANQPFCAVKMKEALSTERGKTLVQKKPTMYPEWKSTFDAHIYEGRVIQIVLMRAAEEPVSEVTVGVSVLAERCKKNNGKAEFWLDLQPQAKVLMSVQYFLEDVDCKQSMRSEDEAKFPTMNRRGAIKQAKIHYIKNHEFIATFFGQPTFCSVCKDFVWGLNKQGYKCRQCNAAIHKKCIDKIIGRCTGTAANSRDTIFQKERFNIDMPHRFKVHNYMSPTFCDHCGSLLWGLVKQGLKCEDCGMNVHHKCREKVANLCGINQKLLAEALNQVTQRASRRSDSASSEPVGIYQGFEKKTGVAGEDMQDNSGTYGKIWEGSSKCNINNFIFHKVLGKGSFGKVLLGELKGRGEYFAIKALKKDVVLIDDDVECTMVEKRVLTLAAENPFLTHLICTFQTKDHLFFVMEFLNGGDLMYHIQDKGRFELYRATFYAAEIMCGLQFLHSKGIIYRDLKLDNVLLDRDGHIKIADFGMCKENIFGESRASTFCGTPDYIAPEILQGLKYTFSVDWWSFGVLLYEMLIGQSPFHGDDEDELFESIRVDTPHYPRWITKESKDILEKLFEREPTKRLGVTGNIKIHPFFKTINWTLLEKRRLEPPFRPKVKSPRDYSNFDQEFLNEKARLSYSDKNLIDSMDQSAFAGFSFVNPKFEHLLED

`c1cc(-c2n[nH]c3ncccc23)nc(N2CCCNCC2)c1` [Compound 1]: the pKi at PKC theta kinase is over 7.30; on PKC delta kinase, over 6.30.

On to `C#Cc1cnc2[nH]nc(-c3cccc(N4CCCNCC4)n3)c2c1` [Compound 2], for which the pKi at PKC theta kinase was over 6.30.

`CC(C)C[C@H]1CN(c2cccc(-c3n[nH]c4ncccc34)n2)CCN1` [Compound 7, (S)-3-(6-(3-isobutylpiperazin-1-yl)pyridin-2-yl)-1H-pyrazolo[3,4-b]pyridine]: at PKC alpha kinase, the pKi was over 5.55.

The compound `c1cc(-c2n[nH]c3ncccc23)nc(N2CCNCC2)c1` [Compound 9] had a pKi at PKC alpha kinase of over 5.55.

With `C[C@H]1CN(c2cccc(-c3n[nH]c4ncccc34)n2)CCN1` [Compound 19], the pKi on PKC alpha kinase was under 5.90.

In the case of `c1ccc(C2CN(c3cccc(-c4n[nH]c5ncccc45)n3)CCN2)cc1` (stereo not shown) [Compound 21], at PKC alpha kinase, the pKi was over 5.55.

Turning to `CC(C)[C@H]1CN(c2cccc(-c3n[nH]c4ncccc34)n2)CCN1` [Compound 62], on PKC alpha kinase, the pKi was over 5.55.

For `CC[C@@H]1CN(c2cccc(-c3n[nH]c4ncccc34)n2)CCN1` [Compound 67], the pKi at PKC alpha kinase is over 5.55.

At PKC alpha kinase, `C[C@@H]1CN(c2cccc(-c3n[nH]c4ncccc34)n2)CCN1` [Compound 70] showed a pKi of under 5.90.

As to `CC(C)C[C@H]1CN(c2ccc(F)c(-c3n[nH]c4ncccc34)n2)CCN1` [Compound 112], the figures for the pKi at PKC delta kinase and at PKC alpha kinase were over 6.30 and under 5.90, respectively.

Consider `CC(C)CC1(C)CN(c2ccc(C(F)(F)F)c(-c3n[nH]c4ncccc34)n2)CCC1N` (stereo not shown) [Compound 158], for which the pKi at PKC alpha kinase was over 6.30.

With `CC(C)C[C@H]1CN(c2cccc(-c3n[nH]c4ncccc34)n2)CC[C@H]1N` [Compound 168], the pKi on PKC alpha kinase was over 6.30.

The compound `CC(C)C(C)(O)C1CN(c2cccc(-c3n[nH]c4ncccc34)n2)CCN1` (stereo not shown) [Compound 178] had a pKi on PKC theta kinase of over 7.30.

As for `CC(C)C(C)(O)C1CN(c2ccc(F)c(-c3n[nH]c4ncccc34)n2)CCN1` (stereo not shown) [Compound 179], the values for the pKi on PKC delta kinase and at PKC alpha kinase were over 6.30 and over 5.55, respectively.

Consider `CC(C)C(C)(O)C1CN(c2ccc(F)c(-c3n[nH]c4ncccc34)n2)CCN1` (stereo not shown) [Compound 180], for which the figures for the pKi at PKC delta kinase and at PKC alpha kinase were over 6.30 and under 5.90, respectively.

On PKC alpha kinase, `COC[C@H]1CN(c2ccc(F)c(-c3n[nH]c4ncccc34)n2)CCN1` [Compound 185] gave a pKi of under 5.90.

`CC(C)C[C@@H]1CN(c2ccc(F)c(-c3n[nH]c4ncccc34)n2)CCN1` [Compound 192]: the pKi at PKC delta kinase was over 5.55; on PKC alpha kinase it was under 5.90.

In the case of `CC(C)C(C)(O)C1CN(c2ccc(F)c(-c3n[nH]c4ncccc34)n2)CCN1` (stereo not shown) [Compound 200], the pKi on PKC delta kinase and at PKC alpha kinase was under 5.90 in each case.

In the case of `CC(C)C(C)(O)C1CN(c2ccc(F)c(-c3n[nH]c4ncccc34)n2)CCN1` (stereo not shown) [Compound 201], the results for the pKi at PKC delta kinase and on PKC alpha kinase were over 6.30 and over 5.55, respectively.

Take `CC(C)C(C)(O)C1CN(c2ccc(F)c(-c3n[nH]c4ncccc34)n2)CCN1` (stereo not shown) [Compound 204]: the results for the pKi on PKC delta kinase and on PKC alpha kinase were over 6.30 and under 5.90, respectively.

As for `CC(C)C(C)(O)C1CN(c2ccc(F)c(-c3n[nH]c4ncccc34)n2)CCN1` (stereo not shown) [Compound 205], the pKi at PKC delta kinase and at PKC alpha kinase was under 5.90 throughout.

Turning to `CC(C)C(C)(O)C1CN(c2ccc(F)c(-c3n[nH]c4ncccc34)n2)CCN1C` (stereo not shown) [Compound 229], the pKi on PKC delta kinase and at PKC alpha kinase was under 5.90 in each case.

Take `CC(C)C(C)(O)C1CN(c2ccc(F)c(-c3n[nH]c4ncccc34)n2)CCN1C` (stereo not shown) [Compound 231]: the pKi at PKC theta kinase is over 7.30; on PKC delta kinase, over 6.30.

Take `CC(C)C[C@@H]1CN(c2cccc(-c3n[nH]c4ncccc34)n2)CCN1` [Compound 235]: the pKi at PKC alpha kinase is over 5.55.

`CC(C)C(C)(O)C1CN(c2ccc(C(F)(F)F)c(-c3n[nH]c4ncccc34)n2)CCN1` (stereo not shown) [Compound 237]: the pKi on PKC delta kinase was over 5.55.

The compound `COC(C)(C(C)C)C1CN(c2ccc(F)c(-c3n[nH]c4ncccc34)n2)CCN1` (stereo not shown) [Compound 239] had a pKi on PKC alpha kinase of under 5.90.

Turning to `CC(N)[C@H]1CCCN(c2ccc(F)c(-c3n[nH]c4ncccc34)n2)C1` (stereo partly shown) [Compound 263], the values for the pKi at PKC theta kinase and at PKC delta kinase were over 6.30 and over 5.55, respectively.

For `CC(O)(C1CC1)C1CN(c2ccc(F)c(-c3n[nH]c4ncccc34)n2)CCN1` (stereo not shown) [Compound 271], the pKi is over 6.30 at PKC delta kinase and under 5.90 on PKC alpha kinase.

For the compound `CC(O)(C1CC1)C1CN(c2ccc(F)c(-c3n[nH]c4ncccc34)n2)CCN1` (stereo not shown) [Compound 272], the pKi at PKC delta kinase was over 6.30; on PKC alpha kinase it was under 5.90.

In the case of `CC(O)(C1CC1)C1CN(c2ccc(F)c(-c3n[nH]c4ncccc34)n2)CCN1` (stereo not shown) [Compound 273], the values for the pKi on PKC delta kinase and on PKC alpha kinase were over 5.55 and under 5.90, respectively.

Consider `C[C@](O)(c1ccccc1)[C@@H]1CN(c2ccc(F)c(-c3n[nH]c4ncccc34)n2)CCN1` [Compound 276], for which, at PKC theta kinase, the pKi is over 7.30.

Turning to `CC(C)C(O)[C@@H]1CCCN(c2ccc(F)c(-c3n[nH]c4ncccc34)n2)C1` (stereo partly shown) [Compound 279], at PKC theta kinase, the pKi was under 6.15.

For the compound `NCC1CN(c2ccc(F)c(-c3n[nH]c4ncccc34)n2)CCC1O` (stereo not shown) [Compound 297], the pKi on PKC delta kinase was under 5.90.

For `Fc1ccc(N2CCCC(C3CCCN3)C2)nc1-c1n[nH]c2ncccc12` (stereo not shown) [Compound 315], at PKC theta kinase, the pKi was under 6.15.

As for `CC(C)(C)CC(N)C1CCCN(c2ccc(F)c(-c3n[nH]c4ncccc34)n2)C1` (stereo not shown) [Compound 318], the pKi on PKC delta kinase was over 5.55.

For `CC(O)(c1ccccc1)C1CN(c2ccc(F)c(-c3n[nH]c4ncccc34)n2)CCN1` (stereo not shown) [Compound 323], the pKi on PKC theta kinase is over 7.30; on PKC delta kinase it was over 5.55.

As for `CCC(CC)C(N)C1CCCN(c2ccc(F)c(-c3n[nH]c4ncccc34)n2)C1` (stereo not shown) [Compound 392], the pKi at PKC delta kinase was under 5.90.

With `CC1(C#N)CCN(c2ccc(C(F)(F)F)c(-c3n[nH]c4ncccc34)n2)CC1` [Compound 415], the results for the pKi on PKC theta kinase and at PKC alpha kinase were under 6.15 and under 5.90, respectively.

`CC1(C#N)CCN(c2ccc(F)c(-c3n[nH]c4ncccc34)n2)CC1` [Compound 416]: the pKi on PKC theta kinase is under 6.15; at PKC alpha kinase, under 5.90.

As to `CC(C)CC1(C#N)CCN(c2ccc(F)c(-c3n[nH]c4ncccc34)n2)CC1` [Compound 417], the results for the pKi on PKC theta kinase and on PKC alpha kinase were under 6.15 and under 5.90, respectively.

For `CC(C)(C)C(N)C1CCN(c2ccc(F)c(-c3n[nH]c4ncccc34)n2)C1` (stereo not shown) [Compound 422], the pKi on PKC delta kinase was over 5.55.

As for `CC(C)C(C)(O)C1CN(c2ccc(Cl)c(-c3n[nH]c4ncccc34)n2)CCN1` (stereo not shown) [Compound 438], the pKi on PKC delta kinase is over 6.30.

On PKC alpha kinase, `CC(C)C(C)(O)C1CN(c2cc(CO)cc(-c3n[nH]c4ncccc34)n2)CCN1` (stereo not shown) [Compound 455] gave a pKi of under 5.90.

In the case of `N#CCCC1CN(c2ccc(C(F)(F)F)c(-c3n[nH]c4ncccc34)n2)CCC1O` (stereo not shown) [Compound 460], the pKi at PKC theta kinase is over 6.30.

For `CC1(CN)CCN(c2ccc(C(F)(F)F)c(-c3n[nH]c4ncccc34)n2)CC1` [Compound 463], the pKi at PKC theta kinase was under 6.15; at PKC alpha kinase, under 5.90.

For `CCC1CN(c2ccc(C(F)(F)F)c(-c3n[nH]c4ncccc34)n2)CCC1CN` (stereo not shown) [Compound 465], the results for the pKi on PKC theta kinase and at PKC alpha kinase were over 6.30 and under 5.90, respectively.

`CC(C)CC1CN(c2cncc(-c3n[nH]c4ncccc34)n2)CCC1N` (stereo not shown) [Compound 468]: the pKi was over 7.30 on PKC theta kinase and over 6.30 on PKC alpha kinase.

At PKC alpha kinase, `CC(C)C(C)(O)C1CN(c2cncc(-c3n[nH]c4ncccc34)n2)CCN1` (stereo not shown) [Compound 470] had a pKi of over 6.30.
